From PMC10244465, “Native American ataxia medicines rescue ataxia-linked mutant potassium channel activity via binding to the voltage sensing domain” (Nature Communications, 2023)

Experiments:
wild-type human Kv1.2 = target: T1, wild-type human Kv1.2 (Homo sapiens, UniProt P16389); experiment: Two-electrode voltage clamp of oocytes expressing wild-type Kv1.2; assay type: cell-based
T1 construct: expressed in transfected cells; host or cells: Xenopus laevis oocytes injected with cRNA (pTLNx vector)
Description: We therefore first tested for activity of extracts (diluted 1:50 in bath solution to equal 5 mg plant solid starting material per ml) of each of the three plants on wild-type human Kv1.1 and closely related Kv1.2 expressed in Xenopus laevis oocytes, using manual two-electrode voltage clamp (TEVC). Strikingly, all three extracts altered Kv1 channel activity. […] Pacific ninebark (roots or leaves) had similar effects on Kv1.1 but negligible effects on Kv1.2.
We purchased live Urtica dioica (Common Nettle) from Crimson Sage Nursery (Orleans, CA, USA), cultivated it in Irvine CA, collected the aerial portions (primarily leaves) and then froze them until the day of extraction. We purchased Physocarpus capitatus (Pacific ninebark) live whole plant from Ozark Wildflower Company (Jasper, AR, USA) and separated the roots and aerial parts before extraction of each. We homogenized plant samples using a bead mill with porcelain beads in batches in 50 ml tubes (Omni International, Kennesaw, GA, United States). We purchased certified organic tree bark powders from Mountain Rose Herbs (Eugene, OR, USA) and dry raw Sophora japonica (fine pellets) from Teriya (People’s Republic of China). We purchased bladderwrack kelp extract capsules from Terra Vita (Brampton, Ontario, Canada) and discarded the outer capsule before extraction. We resuspended all plant powders and homogenates in 80% methanol/20% water (100 ml per 5 g solid) and then incubated for 48 h at room temperature, occasionally inverting the bottles to resuspend the extracts. We next filtered the extracts through Whatman filter paper #1 (Whatman, Maidstone, UK), and then removed the methanol using evaporation in a fume hood for 24–48 h at room temperature. We next centrifuged extracts for 10 min at 15 °C, 4000 RCF to remove the remaining particulate matter, followed by storage at −20 °C. On the day of electrophysiological recording, we thawed the extracts and diluted them 1:50 in bath solution (see below), to equal 5 mg plant solid starting material per ml, immediately before use.
Wild-type and mutant Kv1 cDNAs were generated (Genscript, Piscataway, NJ) in the pTLNx expression vector. […]
(§1) We performed TEVC at room temperature using an OC-725C amplifier (Warner Instruments, Hamden, CT) and pClamp10 software (Molecular Devices, Sunnyvale, CA) 2 days after cRNA injection as described in the section above. […] We recorded currents in response to voltage pulses between −80 mV and +40 mV at 10 or 20 mV intervals from a holding potential of −80 mV, to yield current-voltage relationships and examine activation kinetics. To calculate the voltage dependence of activation (V0.5), tail currents were recorded at a voltage pulse of −50 mV immediately following prepulse voltages between −80 mV and +40 mV. […]

[1] = target: T2, Kv1.1/Kv1.1-G311D channels (Homo sapiens, UniProt Q09470, G311D); experiment: TEVC of oocytes co-injected with 50/50 wild-type/G311D Kv1.1 cRNA; assay type: cell-based; conditions: for effect on channel activity: compound 1 µM
T2 construct: expressed in transfected cells; host or cells: Xenopus laevis oocytes co-injected with 50/50 wild-type/mutant cRNA
Description: We next tested effects on channels generated by co-injection of 50/50 wild-type/mutant Kv1.1 cRNA. Strikingly, gallic acid (1 µM) was able to hyperpolarize (by −15.5 ± 0.5 mV; n = 4; P < 0.0001) the V0.5 act of Kv1.1/Kv1.1-E283K channels, restoring voltage dependence typical of wild-type Kv1.1 (Fig. 7a–c), also inducing a −14 ± 0.7 mV hyperpolarization (n = 4; P = 0.0005) in EM of oocytes expressing Kv1.1/Kv1.1-E283K (Fig. 7d). […] Because of this hint at activity improvement in L155P channels we also applied higher concentrations (10 and 100 µM) of gallic acid, which produced a more robust (−12.5 ± 0.6 mV and −14.1 ± 0.6 mV, respectively) hyperpolarization of Kv1.1/Kv1.1-L155P V0.5 act (Fig. 8b, c) and hyperpolarized EM by −14.0 ± 0.6 mV and −15.2 ± 0.7 mV, respectively (Fig. 8d).
Wild-type and mutant Kv1 cDNAs were generated (Genscript, Piscataway, NJ) in the pTLNx expression vector. As previously described, we generated cRNA transcripts encoding human Kv1.1 (wild-type and mutant) and Kv1.2, by in vitro transcription using the mMessage mMachine kit (Thermo Fisher Scientific), after vector linearization, from cDNA sub-cloned into plasmids (pTLNx) incorporating Xenopus laevis β-globin 5’ and 3’ UTRs flanking the coding region to enhance translation and cRNA stability. […]
as §1, with “mV. We analyzed data using Clampfit (Molecular Devices) and Graphpad Prism software (GraphPad, San Diego, CA, USA), stating values as mean ± SEM.” for “mV.”

T2 sequence (Q09470 whole entry, stated change not applied): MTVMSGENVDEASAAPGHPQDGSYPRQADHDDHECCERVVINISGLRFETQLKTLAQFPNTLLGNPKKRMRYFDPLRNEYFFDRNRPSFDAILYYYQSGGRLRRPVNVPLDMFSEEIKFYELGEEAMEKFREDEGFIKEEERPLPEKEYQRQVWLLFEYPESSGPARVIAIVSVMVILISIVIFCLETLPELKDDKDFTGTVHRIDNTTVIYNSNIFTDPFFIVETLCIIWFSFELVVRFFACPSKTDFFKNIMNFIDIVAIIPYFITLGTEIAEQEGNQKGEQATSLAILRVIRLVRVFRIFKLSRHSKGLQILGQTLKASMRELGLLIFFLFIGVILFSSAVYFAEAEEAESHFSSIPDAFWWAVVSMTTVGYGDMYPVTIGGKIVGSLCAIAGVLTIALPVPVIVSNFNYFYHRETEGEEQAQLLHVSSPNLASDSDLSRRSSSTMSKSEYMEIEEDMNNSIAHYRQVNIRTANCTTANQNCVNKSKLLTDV
T2 sequence (Q09470 whole entry G311D): as the sequence (Q09470 whole entry, stated change not applied) above, with G311D counted along it
T1 sequence (P16389 whole entry): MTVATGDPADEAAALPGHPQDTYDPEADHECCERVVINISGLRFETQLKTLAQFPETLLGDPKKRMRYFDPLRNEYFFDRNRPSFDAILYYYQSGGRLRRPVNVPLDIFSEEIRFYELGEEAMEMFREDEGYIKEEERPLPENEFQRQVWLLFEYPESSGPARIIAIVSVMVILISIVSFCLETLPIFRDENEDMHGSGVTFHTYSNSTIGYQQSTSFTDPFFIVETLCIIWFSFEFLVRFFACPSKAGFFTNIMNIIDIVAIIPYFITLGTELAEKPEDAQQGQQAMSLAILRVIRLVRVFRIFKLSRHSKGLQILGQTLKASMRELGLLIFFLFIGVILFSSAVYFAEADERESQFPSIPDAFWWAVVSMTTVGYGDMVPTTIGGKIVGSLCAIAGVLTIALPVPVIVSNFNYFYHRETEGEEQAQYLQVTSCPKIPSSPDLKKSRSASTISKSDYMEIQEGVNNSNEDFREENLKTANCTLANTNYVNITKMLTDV

Compound | effect on Kv1.2 (wild-type human Kv1.2; compound dose response, Fig. 4a) | effect on channel activity [1] | EM ([1]; in presence of 1 µM compound) [mV] | EC50 (wild-type human Kv1.2; dose response, Fig. 4, read-out: EC50 for ΔV0.5activation) [µM]
O=C(O)c1cc(O)c(O)c(O)c1 [gallic acid] | relatively insensitive | negligible | -47.00 ± 2.56 | –
tannic acid | – | minimal | – | 0.253 ± 0.01
